PubChem BioAssay (NCI)
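Where inhibition never reached the appropriate level, the endpoint shown equals the highest concentration tested. Otherwise, values were interpolated linearly from a five-concentration, 48-hour dose response in 96-well plates. Abbreviation: GI50, concentration required for 50% inhibition of growth. At the TGI there is no net growth.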

Tests used:
Experiment in all cases: NCI tumour cell line growth inhibition, 48 h
A549 NSCLC = test system: A549 NSCLC
HCC-2998 colon = test system: HCC-2998 colon
ACHN renal = test system: ACHN renal
HS 578T breast = test system: HS 578T breast
OVCAR-4 ovarian = test system: OVCAR-4 ovarian
MDA-MB-435 = test system: MDA-MB-435
MCF7 breast = test system: MCF7 breast
SF-268 CNS = test system: SF-268 CNS
TK-10 renal = test system: TK-10 renal
SK-MEL-5 melanoma = test system: SK-MEL-5 melanoma
SK-OV-3 ovarian = test system: SK-OV-3 ovarian
HCT-116 colon = test system: HCT-116 colon
PC-3 prostate = test system: PC-3 prostate
NCI-H460 lung = test system: NCI-H460 lung
MALME-3M melanoma = test system: MALME-3M melanoma
HOP-62 NSCLC = test system: HOP-62 NSCLC
OVCAR-5 ovarian = test system: OVCAR-5 ovarian
CCRF-CEM leukemia = test system: CCRF-CEM leukemia
K-562 leukemia = test system: K-562 leukemia
MOLT-4 leukemia = test system: MOLT-4 leukemia
EKVX NSCLC = test system: EKVX NSCLC
HCT-15 colon = test system: HCT-15 colon
SNB-75 CNS = test system: SNB-75 CNS
HL-60(TB) leukemia = test system: HL-60(TB) leukemia
RPMI-8226 leukemia = test system: RPMI-8226 leukemia
LOX IMVI melanoma = test system: LOX IMVI melanoma
DU-145 prostate = test system: DU-145 prostate
786-0 renal = test system: 786-0 renal
UO-31 renal = test system: UO-31 renal

CCOc1ccc(/C=C/C(=O)c2ccccc2)cc1
GI50 (A549 NSCLC): 21.9 µM
TGI (A549 NSCLC): 53.9 µM
GI50 (HCC-2998 colon): 15.6 µM
TGI (HCC-2998 colon): 29.7 µM
GI50 (ACHN renal): 18.1 µM
TGI (ACHN renal): 34.9 µM
GI50 (HS 578T breast): 20.4 µM
TGI (HS 578T breast): 56.3 µM
GI50 (OVCAR-4 ovarian): 21.5 µM
TGI (OVCAR-4 ovarian): 60.5 µM
GI50 (MDA-MB-435): 12 µM
TGI (MDA-MB-435): 30.1 µM
GI50 (MCF7 breast): 4.12 µM
TGI (MCF7 breast): 21 µM
GI50 (SF-268 CNS): 18.7 µM
TGI (SF-268 CNS): 36.9 µM
GI50 (TK-10 renal): 17.9 µM
TGI (TK-10 renal): 34.9 µM
GI50 (SK-MEL-5 melanoma): 17.1 µM
TGI (SK-MEL-5 melanoma): 31.2 µM
GI50 (SK-OV-3 ovarian): 21.5 µM
TGI (SK-OV-3 ovarian): 56 µM
GI50 (HCT-116 colon): 12.9 µM
TGI (HCT-116 colon): 27.4 µM
GI50 (PC-3 prostate): 23.9 µM
TGI (PC-3 prostate): 61.4 µM
GI50 (NCI-H460 lung): 19.5 µM
TGI (NCI-H460 lung): 41.6 µM
GI50 (MALME-3M melanoma): 17.9 µM
TGI (MALME-3M melanoma): 35.2 µM
GI50 (HOP-62 NSCLC): 18.1 µM
TGI (HOP-62 NSCLC): 35.4 µM
GI50 (OVCAR-5 ovarian): 19.3 µM
TGI (OVCAR-5 ovarian): 47.1 µM
GI50 (CCRF-CEM leukemia): 17.9 µM
TGI (CCRF-CEM leukemia): 62.4 µM
GI50 (K-562 leukemia): 8.05 µM
TGI (K-562 leukemia): 80.8 µM
GI50 (MOLT-4 leukemia): 18.6 µM
TGI (MOLT-4 leukemia): 94.9 µM
GI50 (EKVX NSCLC): 16 µM
TGI (EKVX NSCLC): 30.6 µM
GI50 (HCT-15 colon): 14.6 µM
TGI (HCT-15 colon): 48 µM
GI50 (SNB-75 CNS): 22.4 µM
TGI (SNB-75 CNS): 51.4 µM
GI50 (HL-60(TB) leukemia): 25 µM
TGI (HL-60(TB) leukemia): 94.5 µM
GI50 (RPMI-8226 leukemia): 3.95 µM
TGI (RPMI-8226 leukemia): 20.5 µM
GI50 (LOX IMVI melanoma): 11.9 µM
TGI (LOX IMVI melanoma): 26.5 µM
GI50 (DU-145 prostate): 3.95 µM
TGI (DU-145 prostate): 14.9 µM
GI50 (786-0 renal): 20.6 µM
TGI (786-0 renal): 39.1 µM
GI50 (UO-31 renal): 14.1 µM
TGI (UO-31 renal): 28 µM
